Results taken from patent US10144746B2 (GLOBAL BLOOD THERAPEUTICS, INC., priority 2015, dated 2018).

Biological target: Human plasma kallikrein (Homo sapiens (Human), UniProt P03952)
Experiment: In vitro plasma kallikrein inhibition assay (chromogenic substrate D-Pro-Phe-Arg-pNa, absorbance at 405 nm, IC50 determination)
Assay type: biochemical
Settings: for IC50: read-out: KLKB1 pIC50 (converted)
Description: In Vitro Plasma Kallikrein Inhibition Assay
The chromogenic substrate D-Pro-Phe-Arg-pNa, 2HCl (BIOPHEN CS-31(02) from Hyphen BioMed, Neuville-Sur-oise, France) was dissolved in 5 mL deionized water and stored at 4° C. […] All other chemicals were of analytical grade.
A stock solution of 7 μM in 50% glycerol was stored at −20° C.
Enzyme reactions were conducted in “assay buffer” comprised of 20 mM HEPES at pH 7.4, 150 mM NaCl, 0.1% PEG-8000 and 0.01% Triton X-100.
Both enzyme and substrate were diluted in assay buffer.
Plate measurements were conducted using a SPECTROStar Nano reader (BMG Labtech, San Francisco, Calif., USA). […] We used discrete wavelength, precise, kinetic reads of 15 cycles with a 60 sec cycle time.
Determination of IC50 values
The test compound was dissolved in 100% DMSO. The compounds were serially diluted in DMSO in a 7 point dose response. For the assays, 66.5 μL of protease solution (protease in assay buffer) was added per well followed by the addition of 8.5 μL of compound in 100% DMSO. […] After 30 min. incubation at room temperature on an orbital shaker, the reactions were started by the addition of 10 μL substrate solution (in assay buffer, final assay concentration was 600 uM). After the addition of the substrate solution the final DMSO concentration was 10%. The plate was placed again on the shaker for 5 sec, spun at 2000 rpm for 5 sec and read on the spectrophotometer. […] The IC50 value was calculated from the plot of rate vs. inhibitor concentration by a 4 parameter logistic equation: y=A+((B−A)/([…]))
where y is the rate at the inhibitor concentration, x. A is the minimum y value at the highest inhibitor concentration and B is the y value in the absence of inhibitor, C is the IC50 value and D is the slope factor. The curve fitting was conducted with the non-linear regression routine of the analysis software XLfit (IDBS, version 5.3.1).

Chain of Human plasma kallikrein (P03952 391-638): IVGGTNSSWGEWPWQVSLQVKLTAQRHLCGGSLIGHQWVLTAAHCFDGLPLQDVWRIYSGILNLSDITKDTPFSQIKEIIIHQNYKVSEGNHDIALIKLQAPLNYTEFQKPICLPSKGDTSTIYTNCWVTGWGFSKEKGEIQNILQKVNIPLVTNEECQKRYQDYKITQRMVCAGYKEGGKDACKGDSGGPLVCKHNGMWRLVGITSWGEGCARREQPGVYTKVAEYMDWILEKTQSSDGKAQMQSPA
Chain of Human plasma kallikrein (P03952 20-390 partner): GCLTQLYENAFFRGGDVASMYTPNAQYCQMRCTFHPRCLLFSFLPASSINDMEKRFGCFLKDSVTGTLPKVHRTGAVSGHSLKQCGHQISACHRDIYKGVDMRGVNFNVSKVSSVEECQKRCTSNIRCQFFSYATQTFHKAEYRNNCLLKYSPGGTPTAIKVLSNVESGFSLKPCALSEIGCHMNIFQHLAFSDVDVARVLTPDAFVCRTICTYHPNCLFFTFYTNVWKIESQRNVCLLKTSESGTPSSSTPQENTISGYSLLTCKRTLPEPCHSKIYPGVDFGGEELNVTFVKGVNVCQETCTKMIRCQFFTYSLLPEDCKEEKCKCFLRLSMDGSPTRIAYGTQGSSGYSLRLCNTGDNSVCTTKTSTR

IC50	KLKB1 pIC50	Compound
15.8 nM		Cc1ccc(-c2ccc3c(c2)[C@H]2O[C@@H]3c3ccc(C(=O)NCc4cccc5c(N)nccc45)cc32)c(C#N)c1 (single isomer, unassigned) [Example 216]
3.02 nM		Cc1nc(N)cc(C(C)C)c1CNC(=O)c1ccc2c(c1)C1OC2c2ccc(-c3ccc(F)cc3F)cc21 (racemic) [Example 173, (±)-N-{[6-amino-2-methyl-4-(propan-2-yl)pyridin-3-yl]methyl}-12-(2,4-difluorophenyl)-15-oxatetra-cyclo[6.6.1.0^2,^7.0^9,1^4]pentadeca-2,4,6,9,11,13-hexaene-4-carboxamide]
204 nM		Cc1cnn(Cc2ccc3c(c2)C2OC3c3ccc(C(=O)NCc4c(F)cc5c(c4C)CNC5)cc32)c1 (racemic) [Example 153, (±)-N-[(6-fluoro-4-methyl-2,3-dihydro-1H-isoindol-5-yl)methyl]-12-[(4-methyl-1H-pyrazol-1-yl)methyl]-15-oxatetracyclo[6.6.1.0^2,^7.0^9,1^4]-pentadeca-2,4,6,9,11,13-hexaene-4-carboxamide]
100000 nM		O=C(NC1CCCNCC1)c1ccc2c(c1)[C@@H]1O[C@H]2c2ccc(-c3ccc(F)cc3F)cc21 (single isomer, unassigned) [Example 343]
661 nM		Cc1cc(CN)cc(C)c1CNC(=O)c1ccc2c(c1)C1OC2c2ccc(-c3ccc(Cl)c(F)c3F)cc21 (racemic) [Example 125, (±)-N-{[4-(aminomethy])-2,6-dimethylphenyl]-methyl}-12-(4-chloro-2,3-difluorophenyl)-15-oxatetracyclo-[6.6.1.0^2,^7.0^9,1^4]pentadeca-2,4,6,9,11,13-hexaene-4-carboxamide]
10 nM		CC(F)(F)c1ccc2c(c1)[C@H]1O[C@@H]2c2ccc(C(=O)NCc3ccc(C(=N)N)cc3)cc21 (single isomer, unassigned) [Example 281]
17.4 nM		Cc1cc(N)nc(C)c1CNC(=O)c1ccc2c(c1)C1OC2c2cc3c(cc21)C(=O)N(C)C3=O (racemic) [Example 318, (±)-N-[(6-amino-2,4-dimethyl-pyridin-3-yl)methyl]-6-methyl-5,7-dioxo-18-oxa-6-azapentacyclo [9.6.1.0^2,1^0.0^4,^8.0^12,1^4]octadeca-2(10),3,8,12,14,16-hexaene-14-carboxamide]
	6.86	(±)-N-[(6-amino-2,4- dimethylpyridin-3-yl)methyl]- 12-(phenylsulfanyl)-15- oxatetracyclo[6.6.1.0^2,^7.0^9,1^4] pentadeca- 2,4,6,9,11,13-hexaene-4- carboxamide (±)-N-[(6-amino-2,4- dimethylpyridin-3-yl)methyl]-11- (phenylsulfanyl)-15- oxatetracydo[6.6.1.0^2,^7.0^9,1^4] pentadeca-2,4,6,9,11,13- hexaene-4-carboxamide [Example 164]
	7.26	(±)-N-[(4-carbamimidoylphenyl) methyl]-12-(4- fluorophenyl)-8-methyl-15- oxatetracyclo- [6.6.1.0^2,^7.0^9,1^4]pentadeca- 2,4,6,9,11,13-hexaene-4- carboxamide [Example 346]
1290 nM		Cc1cc2c(c(C)c1CNC(=O)c1ccc3c(c1)C1OC3c3ccc(Cn4cccn4)cc31)CNC2 (racemic) [Example 161, (±)-N-[(4,6-dimethyl-2,3-dihydro-1H-isoindol-5-yl)methyl]-12-[(1H-pyrazol-1-yl)methyl]-15-oxatetracyclo[6.6.1.0^2,^7.0^9,1^4]-pentadeca-2,4,6,9,11,13-hexaene-4-carboxamide]
72.4 nM		Cc1cnn(Cc2ccc3c(c2)C2OC3c3ccc(C(=O)NCc4c(C)cc5c(c4C)CNC5)cc32)c1 (racemic) [Example 162, (±)-N-[(4,6-dimethyl-2,3-dihydro-1H-isoindol-5-yl)methyl]-12-[(4-methyl-1H-pyrazol-1-yl)methyl]-15-oxatetracyclo [6.6.1.0^2,^7.0^9,1^4]-pentadeca-2,4,6,9,11,13-hexaene-4-carboxamide]
2570 nM		CCc1cc(N)nc(CC)c1CNC(=O)c1ccc2c(c1)[C@@H]1O[C@H]2c2ccc(-c3ccc(F)cc3F)cc21 (single isomer, unassigned) [Example 248]
550 nM		Cc1cc(N)nc(C)c1CNC(=O)c1ccc2c(c1)C1OC2c2cc3c(cc21)OCCO3 (racemic) [Example 342, (±)-N-[(6-amino-2,4-dimethylpyridin-3-yl)methyl]-5,8,19-trioxapentacyclo-[10.6.1.0^2,11.0^4,^9.0^13,1^8]nonadeca-2,4(9),10,13,15,17-hexaene-15-carboxamide]
10200 nM		Cc1cc(N)nc(C)c1CNC(=O)c1ccc2c(c1)C1OC2c2cc3c(O)nnc(O)c3cc21 (racemic) [Example 320, (±)-N-[(6-amino-2,4-dimethyl-pyridin-3-yl)methyl]-5,8-dihydroxy-19-oxa-6,7-diazapentacyclo [10.6.1.0^2,^11.0^4,^9.0^13,1^8] nonadeca-2(11),3,5,7,9,13,15,17-octaene-15-carboxamide]
10000 nM		Cc1cc(N)nc(C)c1CNC(=O)c1ccc2c(c1)[C@@H]1O[C@H]2c2ccc(NC(=O)c3ccccc3)cc21 (single isomer, unassigned) [Example 229]
224 nM		Cc1cc2c(cc1C)C1OC2c2ccc(C(=O)NCc3c(C)cc(N)nc3C)cc21 (racemic) [Example 308, (±)-N-[(6-amino-2,4-dimethyl-pyridin-3-yl)methyl]-11,12-dimethyl-15-oxatetracyclo [6.6.1.0^2,^7.0^9,1^4]pentadeca-2,4,6,9(14),10,12-hexaene-4-carboxamide]
	5.64	(±)-N4-[(6-amino-2,4- dimethylpyridin-3-yl)methyl]- 11-cyano-15-oxatetracyclo- [6.6.1.0^2,^7.0^9,1^4]pentadeca- 2,4,6,9,11,13-hexaene-4,12- dicarboxamide and (±)-N4-[(6- amino-2,4-dimethylpyridin-3- yl)methyl]-12-cyano-15- oxatetracyclo[6.6.1.0^2,^7.0^9,1^4] pentadeca-2,4,6,9,11,13- hexaene-4,11-dicarboxamide [Example 333]
1 nM		N=C(N)c1ccc(CNC(=O)c2ccc3c(c2)[C@@H]2O[C@H]3c3ccc(-c4ccccc4F)cc32)c(F)c1 (single isomer, unassigned) [Example 290]
2.45 nM		N=C(N)c1cc(F)c(CNC(=O)c2ccc3c(c2)[C@@H]2O[C@H]3c3ccc(-n4cccn4)cc32)c(F)c1 (single isomer, unassigned) [Example 286]
	6.64	Cc1cc(N)nc(C)c1CNC(=O)c1ccc2c(c1)C1OC2c2c(C)cc(-c3ccc(F)cc3)cc21 (racemic) [Example 340, (±)-N-[(6-amino-2,4-dimethyl-pyridin-3-yl)methyl]-12-(4-fluorophenyl)-10-methyl-15-oxatetracyclo[6.6.1.0^2,^7.0^9,1^4] pentadeca-2,4,6,9(14),10,12-hexaene-4-carboxamide and (±)-N-[(6-amino-2,4-dimethylpyridin-3-yl)methyl]-11-(4-fluorophenyl)-13-methyl-15-oxatetracyclo [6.6.1.0^2,^7.0^9,1^4]pentadeca-2,4,6,9(14),10,12-hexaene-4-carboxamide]
	7.7	(±)-N-[(6-amino-2,4-dimethyl- pyridin-3-yl)methyl]-12-(2,4- difluorophenyl)-11-methyl-15- oxatetracyclo[6.6.1.0^2,^7.0^9,1^4] pentadeca-2,4,6,9(14),10,12- hexaene-4-carboxamide and (±)-N-[(6-amino-2,4- dimethylpyridin-3-yl)methyl]-11- (2,4-difluorophenyl)-12- methyl-15-oxatetracyclo [6.6.1.0^2,^7.0^9,1^4]pentadeca- 2,4,6,9(14),10,12-hexaene-4- carboxamide [Example 310]
1.82 nM		CCc1cc2c(cc1CC)C1OC2c2ccc(C(=O)NCc3ccc(C(=N)N)cc3)cc21 (racemic) [Example 315, (±)-N-[(4-carbamimidoylphenyl)methyl]-11,12-diethyl-15-oxatetracyclo[6.6.1.0^2,^7.0^9,1^4]-pentadeca-2,4,6,9(14),10,12-hexaene-4-carboxamide]
12.9 nM		Cc1cc(N)nc(C)c1CNC(=O)c1ccc2c(c1)[C@@H]1O[C@H]2c2ccc(CN3CCCN(C)C3=O)cc21 (single isomer, unassigned) [Example 235]
6030 nM		CCOC(=O)N=C(N)c1ccc(CNC(=O)c2ccc3c(c2)[C@@H]2O[C@H]3c3ccc(-c4ccc(F)cc4F)cc32)cc1 (single isomer, unassigned) [Example 273]
2 nM		N=C(N)c1ccc(CNC(=O)c2ccc3c(c2)[C@@H]2O[C@H]3c3ccc(-c4ccc(Cl)s4)cc32)cc1 (single isomer, unassigned) [Example 217]
123 nM		Cc1nc(N)cc(C(C)C)c1CNC(=O)c1ccc2c(c1)[C@@H]1O[C@H]2c2ccc(-c3c(F)ccc[n+]3[O-])cc21 (single isomer, unassigned) [Example 289]
